Earlier results in patent US20220175648A1, “TOPICAL FORMULATIONS WITH LIPID-BASED CARRIERS” (KATE ROSE LLC, priority 2020, published 2022).

What was measured:
[1] = after just one year
age spots = conditions: 10% solution
collagen synthesis = conditions: versus L-ascorbic acid at the same dosage
[2] = system: UV B and reactive oxygen species; conditions: in vitro studies

Which “break down of L-ascorbic acid” value [1] does the source give for `O=C1O[C@H]([C@@H](O)CO)C(O)=C1O` [L-ascorbic acid] here?
Its value is 20%.

With `CCCCCCCCC(CCCCCC)C(=O)OC[C@H](OC(=O)C(CCCCCC)CCCCCCCC)[C@H]1OC(=O)C(OC(=O)C(CCCCCC)CCCCCCCC)=C1OC(=O)C(CCCCCC)CCCCCCCC` (stereo partly shown) [THD, Tetrahexyldecyl ascorbate] as the compound, how does the “presence of age spots” value (age spots) read?
Its value is “decreases the presence of age spots”.

What about the “increase of collagen synthesis” value (collagen synthesis) of the same compound?
The value was “up to two times greater than L-ascorbic acid”.

What about the “protection against UV B and reactive oxygen species” value [2] of the same compound?
The value was “effective at protecting against UV B and reactive oxygen species”.
